Data taken from PubChem BioAssay (NCI).
Where “and” joins values, the source holds several entries; their conditions need not be identical. Identical values can stand only once.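 Grown in 96-well plates, cells were treated for 48 hours with each compound at five concentrations. Insufficient inhibition: endpoint recorded as highest concentration tested. Here, GI50 denotes the concentration required for 50% inhibition of growth. TGI marks complete inhibition of growth.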

Key:
Experiment in all cases: DTP human tumour cell line panel, 48 h
A549 NSCLC = tested on: A549 NSCLC
HCT-116 colon = tested on: HCT-116 colon
HCT-15 colon = tested on: HCT-15 colon
IGROV1 ovarian = tested on: IGROV1 ovarian
M14 melanoma = tested on: M14 melanoma
MDA-MB-231 breast = tested on: MDA-MB-231 breast
MOLT-4 leukemia = tested on: MOLT-4 leukemia
OVCAR-5 ovarian = tested on: OVCAR-5 ovarian
PC-3 prostate = tested on: PC-3 prostate
RXF 393 renal = tested on: RXF 393 renal

SMILES	GI50 (A549 NSCLC)	TGI (A549 NSCLC)	GI50 (HCT-116 colon)	TGI (HCT-116 colon)	GI50 (HCT-15 colon)	TGI (HCT-15 colon)	GI50 (IGROV1 ovarian)	TGI (IGROV1 ovarian)	GI50 (M14 melanoma)	TGI (M14 melanoma)	GI50 (MDA-MB-231 breast)	TGI (MDA-MB-231 breast)	GI50 (MOLT-4 leukemia)	TGI (MOLT-4 leukemia)	GI50 (OVCAR-5 ovarian)	TGI (OVCAR-5 ovarian)	GI50 (PC-3 prostate)	TGI (PC-3 prostate)	GI50 (RXF 393 renal)	TGI (RXF 393 renal)
CN1CCC2(CC1)N=C(SCC(=O)Nc1cnc3ccccc3c1)C(c1ccc(Br)cc1)=N2	5.01 µM	17.4 µM	1.77 µM	3.16 µM	1.86 µM	3.76 µM	1.77 µM	4.19 µM	1.71 µM	3.16 µM	1.55 µM	3.23 µM	1.93 µM	4.37 µM	2.43 µM	7.33 µM	1.77 µM	3.74 µM	1.77 µM	4.29 µM
CN1CCN(CCCNC(=O)c2c3c(n4ccccc24)C(=O)c2ncccc2C3=O)CC1	1.26 µM	5.48 µM	0.632 µM	4.93 µM	1.25 µM	8.47 µM	1.28 µM	5.06 µM	1.21 µM	2.6 µM	1 µM	> 80 µM	2.13 µM	4.87 µM	2.42 µM	> 53.2 µM	1.37 µM	9 µM	1.52 µM	10.4 µM
COC(=O)C1C(C(=O)O)C2(c3ccccc3)C(=O)C1(c1ccccc1)C(c1ccccc1)=C2c1ccccc1 (stereo unspecified)	19.8 µM	39.1 µM	19.6 µM	35.2 µM	32.5 µM	> 100 µM	17.2 µM	33 µM	19.6 µM	35.7 µM	19.4 µM	38.5 µM	14.5 µM	36 µM	19.3 µM	35.3 µM	15.2 µM	32.5 µM	16.8 µM	36.3 µM
NC(=O)c1c(NC(=O)c2cccs2)sc2c1CCC(=O)C2	3.5 µM	> 100 µM	1.7 µM	13.7 µM	1.65 µM	17.9 µM	1.98 µM	36.7 µM	3.73 µM	> 100 µM	1.99 µM	6.28 µM	2.28 µM	16.1 µM	2.68 µM	9.23 µM	0.627 µM	> 100 µM	2.05 µM	8.49 µM
COC(=O)[C@]12CC[C@@H](C)[C@H](C)[C@@H]1C1=CC[C@@H]3[C@@]4(C)C(C=O)=C[C@@](C)(CO)[C@@H]4[C@H](O)C[C@@]3(C)[C@]1(C)CC2	4.15 µM	14.6 µM	2.76 µM	8.97 µM	2.11 µM	6 µM	4.25 µM	21 µM	4.13 µM	17.8 µM	7.86 µM	22.3 µM	2.79 µM	8.73 µM	3.47 µM	17.9 µM	4.14 µM	18.5 µM	2.64 µM	8.75 µM
CCN1CCN(c2nc(C)cc(NCc3cc(Nc4ccnc5cc(Cl)ccc45)ccc3F)n2)CC1	3.54 µM	13.9 µM	1.01 µM	2.75 µM	1.46 µM	3.66 µM	2.2 µM	7.27 µM	1.45 µM	3.12 µM	1.44 µM	3.56 µM	2.44 µM	16.6 µM	2.2 µM	6.71 µM	1.72 µM	8.66 µM	1.27 µM	3 µM
CCCCC(=O)N(c1ccc(Nc2c3ccccc3nc3cc([N+](=O)[O-])ccc23)cc1)S(C)(=O)=O	1.99 µM	62.2 µM	3.78 µM	19.8 µM	4.45 µM	29 µM	6.86 µM	> 45.8 µM	11 µM	33.6 µM	12.8 µM	49.5 µM	3.53 µM	28.4 µM	77.6 µM	> 100 µM	3.64 µM	54.2 µM	8.44 µM	27.8 µM
CCc1nc(C)cn1C(=O)OCc1nc2nc(Cl)nc(N3CCOCC3)c2[nH]1	1.83 µM	4.36 µM	0.364 µM	2.3 µM	0.677 µM	2.22 µM	0.501 µM	1.86 µM	1.27 µM	3.1 µM	1.39 µM	2.83 µM	1.01 µM	3.79 µM	1.44 µM	2.99 µM	1.25 µM	3.01 µM	0.658 µM	2.01 µM
CC(=Nc1ccc(N(C)C)cc1)c1ccccc1		81.9 µM		30.6 µM		37.9 µM		75.3 µM		29.9 µM		35.4 µM		72.1 µM		> 100 µM		99.4 µM		20.6 µM
N#C/C(=C\c1cc(O)c(O)c(O)c1)C(N)=O		> 100 µM		> 100 µM		> 100 µM		> 100 µM		> 100 µM		> 100 µM		> 100 µM		> 100 µM		> 100 µM		> 100 µM
C/C(=N\NC(=O)c1ccncc1)c1sc(-n2nc(-c3ccccc3)cc2-c2ccccc2)nc1C		> 31.6 µM		> 31.6 µM		> 31.6 µM		> 100 µM		> 31.6 µM		> 100 µM		> 31.6 µM		> 31.6 µM		> 31.6 µM		> 31.6 µM
Nc1[nH]nc2nc(-c3cc(Cl)ccc3Cl)cc(-c3ccc(F)cc3)c12	22.9 µM	87.3 µM	18.9 µM	39.7 µM	28.5 µM	> 100 µM	19 µM	48.7 µM	27.9 µM	49.8 µM	19.9 µM	61.1 µM	23.2 µM	> 100 µM	24.3 µM	59.8 µM	28.3 µM	90.3 µM	18.3 µM	42.3 µM
COc1ccc2c(c1)C(=Nc1ccc(F)c(Cl)c1)c1c-2c(Nc2ccc(F)c(Cl)c2)nc2ccccc12	> 74 µM	> 100 µM	27.8 µM	> 100 µM	> 71.3 µM	> 100 µM	30.1 µM	> 100 µM	47.1 µM	> 100 µM	23 µM	> 61.3 µM	21.2 µM	41.3 µM	> 76.6 µM	> 100 µM	> 94.6 µM	> 100 µM	0.579 µM	37.1 µM
CC1(C)C(N2CCOCC2)CS1(=O)=O (stereo unspecified)		> 10 µM		> 10 µM		> 10 µM		> 10 µM		> 10 µM		> 10 µM		> 10 µM		> 10 µM		> 10 µM		> 10 µM
C#C[C@@]1(O)[C@@H](CO)O[C@@H](n2cc(Br)c3c(Cl)ccnc32)[C@@H]1O	7.01 µM	> 100 µM	0.859 µM	> 100 µM	0.55 µM	> 100 µM	4.86 µM	> 100 µM	17 µM	> 100 µM	0.289 µM	1.94 µM	0.324 µM	3.05 µM	1.96 µM	> 100 µM	0.217 µM	0.874 µM	0.283 µM	1.23 µM
COc1cccc2c1C(=O)c1c(O)c3c(c(O)c1C2=O)C[C@@](O)(C(=O)CO)CC3OC1CC(N)C(OC2CCCCO2)C(C)O1 (stereo partly specified)	0.00469 µM	1.15 µM		1.16 µM and 3.31 µM	0.034 µM	2.36 µM and 13.3 µM	0.0158 µM		0.0529 µM			0.273 µM	< 0.001 µM	0.276 µM and 0.576 µM	0.0682 µM	2.08 µM and 8.5 µM		0.363 µM	0.12 µM	
O=C(/C=C/c1ccccc1)c1cccc2ccccc12	2.96 µM	10.3 µM	1.96 µM	4.1 µM	3.2 µM	13.4 µM	3.4 µM	10.9 µM	2.39 µM	5.19 µM	4.16 µM	18.3 µM	1.43 µM	5.68 µM	3.78 µM	17.4 µM	2.81 µM	7.78 µM	2.38 µM	8.04 µM
C[C@@H](Nc1cc(F)cc(F)c1)c1cc(C(=O)N(C)C)cc2c(=O)cc(N3CCOCC3)oc12	7.43 µM	> 100 µM	10.2 µM	> 100 µM	14.9 µM	> 100 µM	0.73 µM	11.1 µM	24.3 µM	> 100 µM	24.7 µM	> 100 µM	2.06 µM	52.6 µM	4.16 µM	> 100 µM	0.586 µM	> 100 µM	0.0251 µM	0.973 µM
C[C@]12CC[C@H](O[C@@H]3O[C@H](CO[C@@H]4O[C@H](CO)[C@@H](O)[C@H](O)[C@H]4O)[C@@H](O)[C@H](O)[C@H]3O)C[C@@H]1CC[C@@H]1[C@@H]2CC[C@]2(C)[C@@H](C3=CC(=O)OC3)CC[C@]12O		15.9 µM		34.9 µM		42.9 µM		56.3 µM		62.9 µM		> 100 µM		> 41 µM		> 76.6 µM		> 100 µM		41.1 µM
CCOc1cc(-c2nncn2C)ccc1Nc1ncc2cc(C)nc(NCC(C)(C)C)c2n1	2.34 µM	> 100 µM	0.0849 µM	> 100 µM	0.193 µM	> 100 µM	> 100 µM	> 100 µM	> 100 µM	> 100 µM		> 100 µM		> 100 µM	> 100 µM	> 100 µM		> 100 µM	2.33 µM	> 100 µM
